In ChEMBL document CHEMBL3045058, “Comparative QSAR and pharmacophore modeling of substituted 2-[2-(dimethylamino) ethyl]-1, 2-dihydro-3H-dibenz[de,h]isoquinoline-1,3-diones derivatives as anti-tumor activity” (Med Chem Res, 2013) one finds pIC50 data, which are given here for 39 molecules.

As a reminder, the pIC50 is the IC50 on a negative log10 scale, so that one unit is a factor of ten. Lower therefore signals a large IC50.

Assay [1] in a line: Cytotoxicity against human Ovarian cancer cells. In kind it is functional, cell-based. As to conditions: Cancer cell lines.
Assay [2] in a line: Cytotoxicity against human melanoma cells. The format is functional, cell-based. To be noted: Melanoma cell.

In the case of `CN(C)CCN1C(=O)c2cccc3cc4cc(O)ccc4c(c23)C1=O`, the negative logarithm of the IC50 (pIC50) in assay [1] came out at 7.66; in assay [2] it was 8.34.

Take `CC(=O)Nc1ccc2c3c4c(cccc4cc2c1)C(=O)N(CCN(C)C)C3=O`: the figures for the pIC50 in assay [1] and in assay [2] were 7.89 and 7.22, respectively.

In the case of `CN(C)CCN1C(=O)c2c(N)ccc3cc4ccccc4c(c23)C1=O`, the figures for the pIC50 in assay [1] and in assay [2] were 7.92 and 8.02, respectively.

Regarding `CN(C)CCN1C(=O)c2c(Cl)ccc3cc4ccccc4c(c23)C1=O`, the negative-log IC50 (pIC50) in assay [1] is 6.75; in assay [2], 6.89.

As to `CN(C)CCN1C(=O)c2cccc3cc4ccc(N)cc4c(c23)C1=O`, the negative-log IC50 (pIC50) in assay [1] is 7.7; in assay [2] it was 7.2.

`CC(=O)Nc1ccc2cc3cccc4c3c(c2c1)C(=O)N(CCN(C)C)C4=O`: the pIC50 in assay [1] came out at 7.31; in assay [2], 7.01.

Regarding `CN(C)CCN1C(=O)c2cccc3cc4c(N)cccc4c(c23)C1=O`, the pIC50 in assay [1] amounted to 5.02; in assay [2] it was 4.69.

For the molecule `CN(C)CCN1C(=O)c2cccc3cc4ccc(O)cc4c(c23)C1=O`, the negative-log IC50 (pIC50) in assay [1] was 5.72; in assay [2], 5.92.

For `CN(C)CCN1C(=O)c2cccc3cc4c(O)cccc4c(c23)C1=O`, the pIC50 in assay [1] was determined as 6.67; in assay [2], 6.57.

On to `CN(C)CCN1C(=O)c2cccc3cc4ccc(F)cc4c(c23)C1=O`, for which the pIC50 in assay [1] came out at 8.17; in assay [2], 7.8.

In the case of `CN(C)CCN1C(=O)c2cccc3cc4c(I)cccc4c(c23)C1=O`, the pIC50 worked out at 5.68 in assay [1] and 6.08 in assay [2].

As for `CN(C)CCN1C(=O)c2cccc3cc4ccc(C#N)cc4c(c23)C1=O`, the figures for the pIC50 in assay [1] and in assay [2] were 7.92 and 7.96, respectively.

As to `CN(C)CCN1C(=O)c2cccc3cc4ccc(-c5ccccc5)cc4c(c23)C1=O`, the negative-log IC50 (pIC50) in assay [1] was 6.46; in assay [2], 5.73.

For `CN(C)CCN1C(=O)c2c(NC(=O)C(C)(C)C)ccc3cc4ccccc4c(c23)C1=O`, the pIC50 in assay [1] came to 6.18; in assay [2], 5.06.

In the case of `CCOc1ccc2cc3cccc4c3c(c2c1)C(=O)N(CCN(C)C)C4=O`, the pIC50 in assay [1] is 7.2; in assay [2] it was 7.12.

For `CN(C)CCN1C(=O)c2cccc3cc4cc(N)ccc4c(c23)C1=O`, the pIC50 turned out to be 7.85 in assay [1] and 7.35 in assay [2].

Turning to `CN(C)CCN1C(=O)c2cccc3cc4cccc(N)c4c(c23)C1=O`, the negative-log IC50 (pIC50) in assay [1] was determined as 5.76; in assay [2], 6.02.

As for `CN(C)CCN1C(=O)c2cccc3cc4c([N+](=O)[O-])cccc4c(c23)C1=O`, the figures for the negative-log IC50 (pIC50) in assay [1] and in assay [2] were 7.3 and 7.42, respectively.

In the case of `CN(C)CCN1C(=O)c2cccc3cc4cccc(Cl)c4c(c23)C1=O`, the negative-log IC50 (pIC50) in assay [1] was 5.05; in assay [2], 5.69.

As for `CN(C)CCN1C(=O)c2cccc3cc4cccc([N+](=O)[O-])c4c(c23)C1=O`, the pIC50 was determined as 6.65 in assay [1] and 7.13 in assay [2].

For the molecule `CN(C)CCN1C(=O)c2cccc3cc4ccc(Cl)cc4c(c23)C1=O`, the pIC50 was determined as 7.11 in assay [1] and 7.19 in assay [2].

On to `CN(C)CCN1C(=O)c2cccc3cc4cc(Cl)ccc4c(c23)C1=O`, for which the negative-log IC50 (pIC50) in assay [1] was 6.64; in assay [2] it was 7.05.

As to `CN(C)CCN1C(=O)c2cccc3cc4ccc(I)cc4c(c23)C1=O`, the pIC50 in assay [1] stood at 6.75; in assay [2], 6.2.

As to `COc1cccc2c3c4c(cccc4cc12)C(=O)N(CCN(C)C)C3=O`, the negative-log IC50 (pIC50) in assay [1] and in assay [2] was 7.28 each time.

For `CC(=O)Nc1cccc2c3c4c(cccc4cc12)C(=O)N(CCN(C)C)C3=O`, the pIC50 was found to be 5.7 in assay [1] and 5.92 in assay [2].

As for `CC(=O)Nc1ccc2cc3ccccc3c3c2c1C(=O)N(CCN(C)C)C3=O`, the results for the pIC50 in assay [1] and in assay [2] were 6.21 and 6.01, respectively.

For `CC(=O)Nc1cccc2cc3cccc4c3c(c12)C(=O)N(CCN(C)C)C4=O`, the negative-log IC50 (pIC50) in assay [1] and in assay [2] was 5.61 in each case.

Consider `CC(C)C(=O)Nc1ccc2cc3cccc4c3c(c2c1)C(=O)N(CCN(C)C)C4=O`, for which the figures for the pIC50 in assay [1] and in assay [2] were 6.48 and 6.26, respectively.

As to `CN(C)CCNc1ccc2cc3ccccc3c3c2c1C(=O)N(CCN(C)C)C3=O`, the pIC50 in assay [1] turned out to be 6.24; in assay [2] it was 6.53.

For the molecule `CN(C)CCN1C(=O)c2cccc3cc4ccc([N+](=O)[O-])cc4c(c23)C1=O`, the negative logarithm of the IC50 (pIC50) in assay [1] was found to be 7.64; in assay [2] it was 7.44.

With `CN(C)CCN1C(=O)c2cccc3cc4c(Cl)cccc4c(c23)C1=O`, the negative logarithm of the IC50 (pIC50) in assay [1] stood at 7.41; in assay [2] it was 7.11.

Turning to `Cc1ccc2cc3ccccc3c3c2c1C(=O)N(CCN(C)C)C3=O`, the pIC50 in assay [1] came to 6.91; in assay [2], 6.75.

Regarding `Cc1ccc2cc3cccc4c3c(c2c1)C(=O)N(CCN(C)C)C4=O`, the negative logarithm of the IC50 (pIC50) was determined as 7.17 in assay [1] and 7.09 in assay [2].

On to `COc1ccc2cc3ccccc3c3c2c1C(=O)N(CCN(C)C)C3=O`, for which the figures for the negative-log IC50 (pIC50) in assay [1] and in assay [2] were 6.3 and 6.74, respectively.

In the case of `COc1ccc2cc3cccc4c3c(c2c1)C(=O)N(CCN(C)C)C4=O`, the pIC50 was determined as 7.11 in assay [1] and 7.28 in assay [2].

Take `CN(C)CCN1C(=O)c2c(O)ccc3cc4ccccc4c(c23)C1=O`: the pIC50 in assay [1] came to 4.83; in assay [2] it was 5.12.

Regarding `CN(C)CCN1C(=O)c2cccc3cc4cccc(O)c4c(c23)C1=O`, the values for the pIC50 in assay [1] and in assay [2] were 5.72 and 6.27, respectively.

Turning to `COc1ccc2c3c4c(cccc4cc2c1)C(=O)N(CCN(C)C)C3=O`, the figures for the pIC50 in assay [1] and in assay [2] were 6.27 and 6.79, respectively.

`CN(C)CCN1C(=O)c2cccc3cc4ccccc4c(c23)C1=O` [AZONAFIDE]: the pIC50 in assay [1] stood at 7.24; in assay [2], 7.15.
